Source: publication PMC11002876, “KcsA-Kv1.x chimeras with complete ligand-binding sites provide improved predictivity for screening selective Kv1.x blockers” (The Journal of Biological Chemistry, 2024)
Numbering of substitutions follows the chain as printed. Read-outs that look alike come from different tables or passages of the source. Where a SMILES comes first, the peptide text is derived from it.

Experiments:
[1] = target: T1, KcsA-Kv1.3 T-only chimera (Streptomyces lividans, UniProt P0A334, A54D/A57S/G53D/G56T/I60S/L59F/Q58G/R52A/R64D/T61S/Y62I); assay: Phage-binding competition assay, KcsA-Kv1.3 T-only; parameters: species or system human Kv1.3 turret in Streptomyces lividans KcsA; settings: for IC50: HgTx1-phage competition, T-only KcsA-Kv1.3, value given in figure, sigmoidal fit to means of three replicates, read-out: IC50 (Fig. 6E); for Rank, T-only chimera (Kv1.3): rank by competition IC50 among Vm24, HgTx1, KTX1
T1 construct: made in house; host or cells: E. coli XL1-Blue (pQE30)
T1 sequence (P0A334 1-160 R52A/G53D/A54D/G56T/A57S/Q58G/L59F/I60S/T61S/Y62I/R64D): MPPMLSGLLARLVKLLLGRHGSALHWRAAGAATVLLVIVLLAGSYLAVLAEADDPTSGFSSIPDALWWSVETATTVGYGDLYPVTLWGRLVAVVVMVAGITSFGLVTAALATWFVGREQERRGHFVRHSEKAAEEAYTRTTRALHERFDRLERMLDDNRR
Procedure: (§1) Phage stock solutions were diluted to working concentration with phage resuspension buffer supplemented with 2 mM DDM. For protein immobilization, the following amounts were used in a final volume of 50 μl/well: wt KcsA, 0.1 μg; KcsA-Kv1.1 T-only, 0.005 μg; KcsA-Kv1.1 T+F, 0.02 μg; KcsA-Kv1.2 T-only, 0.01 μg; KcsA-Kv1.2 T+F, 0.1 μg; KcsA-Kv1.3 T-only, 0.01 μg; and KcsA-Kv1.3 T+F, 0.1 μg. Protein samples were diluted in 50 μl of storage buffer (20 mM Tris pH8.0, 300 mM KCl, 2 mM DDM) and were added to the designated wells of a Pierce Clear, 96-Well Nickel Coated Plate (15442, Thermo Fisher Scientific), then incubated for 1 h at room temperature on a horizontal shaker at 130 rpm. The plate was blocked for 1 h at room temperature with 180 μl/well TBS-BSA supplemented with 1 mM DDM. Following blocking, the wells were washed 4× with washing buffer (300 μl TBS-Tween, 0.1% v/v) using a Wellwash Versa microplate washer (Thermo Fisher Scientific); then 50 μl phage solution (in TBS-BSA-Tween, 0.1% v/v, 2 mM DDM) at determined phage concentration was added to the wells and incubated for 1 h at room temperature on a horizontal shaker. The plate was washed 4× with washing buffer, then 50 μl anti-M13 IgG HRP (MA5-36125, Invitrogen) diluted to 1:2500 in TBS-Tween (0.1% v/v) was added to the wells and incubated for 1 h at room temperature. The plate was washed again 4× with 300 μl/well washing buffer. Finally, 50 μl/well 1-Step Ultra TMB-ELISA solution (34028, Thermo Fisher Scientific) was added to the wells, and the developing signal was stopped with 50 μl 1M HCl after 5 to 10 min. The light absorbance signal was read at 450 nm with Byonoy absorbance 96 plate reader (Byonoy GmbH).
(§2) For protein immobilization, the following amounts were used in a final volume of 50 μl/well: KcsA-Kv1.1 T-only, 0.005 μg; KcsA-Kv1.1 T+F, 0.01 μg; KcsA-Kv1.2 T-only, 0.025 μg; KcsA-Kv1.2 T+F, 0.0125 μg; KcsA-Kv1.3 T-only, 0.01 μg; and KcsA-Kv1.3 T+F, 0.1 μg. Protein samples were diluted in storage buffer. Binding of given concentrations of relevant ligand-displaying phages quantified by light absorbance ([…]) were investigated in a similar manner as in phage ELISA-binding assay, while different concentrations of competing toxin test substances were applied simultaneously. The results were converted to percent inhibitions (percent displacement) of the indicator phage binding, and relative affinities of the tested toxins were assessed by plotting percent displacements against log concentrations and determining half maximal inhibitory concentrations (IC50) by sigmoidal curve fitting using “Sigmoidal dose-response (variable slope) with least squares method” algorithm in GraphPad Prism 8 using the following equation: Y=Bottom+Top−Bottom/1+10^(LogEC50−×)⋅HillSlope

[2] = target: T2, KcsA-Kv1.3 T+F chimera (Streptomyces lividans, UniProt P0A334, A54D/A57S/G53D/G56T/I60S/L59F/L81M/Q58G/R52A/R64D/T61S/Y62I/Y82H); assay: Phage-binding competition assay, KcsA-Kv1.3 T+F; parameters: species or system human Kv1.3 turret and filter in Streptomyces lividans KcsA; settings: for IC50 / rank order of affinities, competition, KcsA-Kv1.3 T+F: HgTx1-phage competition; for IC50: T+F KcsA-Kv1.3, value given in figure, sigmoidal fit to means of three replicates, read-out: IC50 (Fig. 6F); for rank order of affinities, competition, KcsA-Kv1.3 T+F: Fig. 6F; for Rank, T+F chimera (Kv1.3): rank by competition IC50 among Vm24, HgTx1, KTX1
T2 construct: made in house; host or cells: E. coli C41(DE3) (pET45b)
T2 sequence (P0A334 1-160 R52A/G53D/A54D/G56T/A57S/Q58G/L59F/I60S/T61S/Y62I/R64D/L81M/Y82H): T1 sequence (P0A334 1-160 R52A/G53D/A54D/G56T/A57S/Q58G/L59F/I60S/T61S/Y62I/R64D) with L81M, Y82H
Procedure: as §1, §2

[3] = target: T3, KcsA-Kv1.1 T-only chimera (Streptomyces lividans, UniProt P0A334, R52A/G53E/A54E/P55A/G56E/A57S/Q58H/L59F/I60S/T61S/Y62I/R64D); assay: Phage-binding competition assay, KcsA-Kv1.1 T-only; parameters: species or system human Kv1.1 turret in Streptomyces lividans KcsA; settings: for competition binding to KcsA-Kv1.1 T-only, in words: ShK-phage competition, native peptide, Fig. 8E (ligand-binding pattern); for Rank, T-only chimera (Kv1.1): rank by competition IC50 among ShK, KTX1, MTX
T3 sequence (P0A334 1-160 R52A/G53E/A54E/P55A/G56E/A57S/Q58H/L59F/I60S/T61S/Y62I/R64D): T1 sequence (P0A334 1-160 R52A/G53D/A54D/G56T/A57S/Q58G/L59F/I60S/T61S/Y62I/R64D) with D53E, D54E, P55A, T56E, G58H
Procedure: as §1, §2

[4] = target: T4, KcsA-Kv1.1 T-only chimera (Streptomyces lividans, UniProt P0A334, A54E/A57S/G53E/G56E/I60S/L59F/P55A/Q58H/R52A/R64D/T61S/Y62I); assay: Phage-binding competition assay, KcsA-Kv1.1 T-only; parameters: species or system human Kv1.1 turret in Streptomyces lividans KcsA
T4 sequence (P0A334 1-160 R52A/G53E/A54E/P55A/G56E/A57S/Q58H/L59F/I60S/T61S/Y62I/R64D): T1 sequence (P0A334 1-160 R52A/G53D/A54D/G56T/A57S/Q58G/L59F/I60S/T61S/Y62I/R64D) with D53E, D54E, P55A, T56E, G58H
Procedure: as §1, §2

Compound	IC50 [1]	Rank, T-only chimera (Kv1.3) [1]	IC50 [2]	rank order of affinities, competition, KcsA-Kv1.3 T+F [2]	Rank, T+F chimera (Kv1.3) [2]	competition binding to KcsA-Kv1.1 T-only, in words [3]	competition binding to KcsA-Kv1.1 T-only, in words ([3]; listed as MTX1)	Rank, T-only chimera (Kv1.1) [3]	IC50 ([4]; displacement of ShK-phage, KcsA-Kv1.1 T-only 0.005 μg/well on nickel-coated plate, mean ± SD (n = 3), NQ = not quantifiable, read-out: IC50, T-only chimera (Kv1.1))	IC50 ([4]; ShK-phage competition, T-only KcsA-Kv1.1, value given in figure, sigmoidal fit to means of three replicates, read-out: IC50 (Fig. 8E))
CC[C@H](C)[C@H](NC(=O)[C@H](C)NC(=O)[C@H](C)NC(=O)[C@H](C)N)C(=O)N[C@@H](CO)C(=O)N[C@H]1CSSC[C@@H]2NC(=O)[C@H](CCCCN)NC(=O)CNC(=O)[C@H](CC(N)=O)NC(=O)[C@H](CCCCN)NC(=O)[C@@H]3CSSC[C@@H](C(N)=O)NC(=O)[C@H](Cc4ccc(O)cc4)NC(=O)[C@H](Cc4ccc(O)cc4)NC(=O)[C@@H]4CSSC[C@H](NC(=O)[C@H](CCCCN)NC(=O)[C@@H]5CCCN5C(=O)[C@@H]5CCCN5C(=O)[C@H](CSSC[C@H](NC(=O)[C@H](CCCCN)NC(=O)[C@H](CCCNC(=N)N)NC(=O)[C@H](CC(N)=O)NC(=O)[C@H](CCSC)NC2=O)C(=O)N[C@@H](CCCCN)C(=O)N4)NC(=O)[C@H](CCC(=O)O)NC(=O)[C@@H]2CCCN2C(=O)[C@H](CO)NC(=O)CNC(=O)[C@H](C(C)C)NC1=O)C(=O)N[C@@H](CCCNC(=N)N)C(=O)N[C@@H](C)C(=O)N[C@@H](CCC(N)=O)C(=O)NCC(=O)N3 [Vm24, Vm24 toxin]	0.603 nM	2	0.0359 nM	Vm24 > HgTx1 > KTX1	1	–	–	–	–	–
CC[C@H](C)[C@@H]1NC(=O)[C@@H]2CSSC[C@H](NC(=O)[C@H](CO)NC(=O)[C@@H](N)C(C)C)C(=O)N[C@@H]([C@@H](C)O)C(=O)NCC(=O)N[C@@H](CO)C(=O)N[C@@H](CCCCN)C(=O)N[C@@H](CC(=O)O)C(=O)N[C@@H](CSSC[C@@H](C(=O)N[C@@H](CCCCN)C(=O)N[C@H]3CSSC[C@@H](C(N)=O)NC(=O)CNC(=O)[C@H](Cc4ccc(O)cc4)NC3=O)NC(=O)[C@H](CO)NC(=O)[C@H](CCCCN)NC(=O)[C@H](CC(N)=O)NC1=O)C(=O)N[C@@H](Cc1ccc(O)cc1)C(=O)N[C@@H](C)C(=O)N1CCC[C@H]1C(=O)N[C@H]1CSSC[C@H](NC(=O)CNC(=O)[C@H]([C@@H](C)O)NC(=O)[C@H](CCC(N)=O)NC(=O)[C@H](CCCCN)NC(=O)[C@H](CCCNC(=N)N)NC1=O)C(=O)N1CCC[C@H]1C(=O)N[C@@H](CC(N)=O)C(=O)N[C@@H](C)C(=O)N[C@@H](CCCCN)C(=O)N2 [MTX, Maurotoxin] (HELM PEPTIDE1{V.S.C.T.G.S.K.D.C.Y.A.P.C.R.K.Q.T.G.C.P.N.A.K.C.I.N.K.S.C.K.C.Y.G.C.[am]}$PEPTIDE1,PEPTIDE1,3:R3-24:R3|PEPTIDE1,PEPTIDE1,9:R3-29:R3|PEPTIDE1,PEPTIDE1,13:R3-19:R3|PEPTIDE1,PEPTIDE1,31:R3-34:R3$$$V2.0; N-terminus and C-terminus assumed)	–	–	–	–	–	ShK > KTX1 > MTX	negligible binding	3	> 1000 nM	–
CC[C@H](C)[C@@H]1NC(=O)[C@@H](NC(=O)[C@H](CO)NC(=O)[C@@H](N)CCCNC(=N)N)CSSC[C@@H](C(=O)O)NC(=O)[C@H]([C@@H](C)O)NC(=O)CNC(=O)[C@@H]2CSSC[C@@H]3NC(=O)[C@H](CCC(N)=O)NC(=O)[C@H](Cc4ccccc4)NC(=O)[C@H](C)NC(=O)[C@H]([C@@H](C)O)NC(=O)[C@H](CSSC[C@H](NC(=O)[C@H](Cc4ccccc4)NC(=O)[C@H](CO)NC(=O)[C@H](CC(C)C)NC(=O)[C@H](CCCNC(=N)N)NC(=O)[C@H](Cc4ccc(O)cc4)NC(=O)[C@H](CCCCN)NC(=O)[C@H](CCSC)NC(=O)[C@H](CO)NC(=O)[C@H](Cc4c[nH]cn4)NC(=O)[C@H](CCCCN)NC3=O)C(=O)N[C@@H](CCCNC(=N)N)C(=O)N[C@@H](CCCCN)C(=O)N[C@@H]([C@@H](C)O)C(=O)N2)NC(=O)[C@H](CCCNC(=N)N)NC(=O)[C@H](CO)NC(=O)[C@H](CCCCN)NC(=O)[C@@H]2CCCN2C(=O)[C@H]([C@@H](C)CC)NC(=O)[C@H]([C@@H](C)O)NC(=O)[C@H](CC(=O)O)NC1=O [ShK, Stichodactyla toxin]	–	–	–	–	–	ShK > KTX1 > MTX	–	1	–	0.317 nM
CC[C@H](C)[C@@H]1NC(=O)CNC(=O)[C@H](Cc2ccccc2)NC(=O)[C@H](CCC(N)=O)NC(=O)[C@H](C)NC(=O)[C@H](CCCCN)NC(=O)[C@@H]2CSSC[C@@H](C(=O)N[C@@H](Cc3ccc(O)cc3)C(=O)N3CCC[C@H]3C(=O)N[C@@H](Cc3c[nH]cn3)C(=O)O)NC(=O)[C@H](CCCCN)NC(=O)[C@@H]3CSSC[C@H](NC(=O)[C@H](CCC(N)=O)NC(=O)[C@H](CCCCN)NC(=O)[C@@H]4CCCN4C(=O)[C@H](CO)NC(=O)[C@H]([C@@H](C)O)NC(=O)[C@@H](NC(=O)[C@H](CCCCN)NC(=O)[C@@H](NC(=O)[C@H](CC(=O)O)NC(=O)[C@@H](NC(=O)[C@@H](NC(=O)[C@@H](N)[C@@H](C)O)C(C)C)[C@@H](C)CC)C(C)C)CSSC[C@H](NC(=O)[C@H](CCCCN)NC(=O)[C@H](C)NC(=O)CNC(=O)[C@H](C)NC(=O)[C@H](CCCNC(=N)N)NC1=O)C(=O)N[C@@H](CCSC)C(=O)N[C@@H](CC(N)=O)C(=O)NCC(=O)N[C@@H](CCCCN)C(=O)N3)C(=O)N[C@@H](CC(C)C)C(=O)N1CCC[C@H]1C(=O)N1CCC[C@H]1C(=O)N2 [HgTx1, Hongotoxin-1] (HELM PEPTIDE1{T.V.I.D.V.K.C.T.S.P.K.Q.C.L.P.P.C.K.A.Q.F.G.I.R.A.G.A.K.C.M.N.G.K.C.K.C.Y.P.H}$PEPTIDE1,PEPTIDE1,7:R3-29:R3|PEPTIDE1,PEPTIDE1,13:R3-34:R3|PEPTIDE1,PEPTIDE1,17:R3-36:R3$$$V2.0; N-terminus and C-terminus assumed)	0.671 nM	3	0.107 nM	Vm24 > HgTx1 > KTX1	2	–	–	–	–	–
